According to paper PMC7864192 (Cancers, 2021):
pIC50: −log10 of the molar value. Read-outs that look alike come from different tables or passages of the source.

Assays:
[1] = test system: GCPA108 T3.IV patient-derived AGCT cell line; test: Cell viability drug screen (Cell Titer Glo 2.0, 72 h), mono- and combination therapy, GCPA108T3.IV; settings: for pIC50: read-out: IC50 in monotherapy
Description: (§1) Cell lines were seeded at a density of 500 cells/well in 40 uL in 384-well plates (Corning, NY, USA) with the Multidrop™ cell dispenser (Thermo Fischer Scientific, Waltham, MA, USA) and sealed with Breathe-Easy® membrane (Sigma-Aldrich, St. Louis, MO, USA) to prevent evaporation. The SVOG-3e line was seeded at 1000 cells/well due to contact-dependent growth requirements. For each cell line, three biological repeats and two technical repeats each were performed in order to ensure the validity of the drug screens. […] Subsequently, 11 drugs and 12 drug combinations were dispensed and all wells (excluding blanks and non-DMSO control wells) were normalized to 1% DMSO using the HP Tecan D300e Digital Dispenser (Hewlett-Packard, Palo Alto, CA, USA). All drugs were applied in linear concentration ranges (Table 2), including 16 data points to enable combination drug testing at constant ratios (Table 3). Next, the plates were covered with the Breathe-Easy membrane and incubated. After 72 h, the Multidrop dispensed 15 uL per well of Cell Titer Glo 2.0 (Thermo Fischer Scientific, Waltham, MA, USA) and plates were incubated in the dark for 10 min. After incubation, luminescence excitation was assessed in the Spectramax reader (Molecular Devices, San Jose, CA, USA) (top read, luminescence excitation at 500 nm) and raw data were processed in Microsoft Excel to subtract background luminescence. The Z-factor, a mathematical method used to quantify the quality of a drug screen based on the calculation of the separation band between the values of the positive and negative controls, was utilized to assess the quality of drug screens [54]. Screens with a Z-factor value of >0.5 were used for further analysis.
(§2) Overall cell survival (in %) was plotted against the drug concentration range of each drug (in log10[μM]) using GraphPad Prism 8.3.1. Values that exceeded 100% survival (within +20% biological deviation) were normalized to 100% survival. Similarly, values below 0% cell survival (within −20% biological deviation) were normalized to 0% survival. Values exceeding this deviation were excluded. Dose–response curves were obtained using the model “log(inhibitor) vs. variable slope (normalized response)” to fit the dose–response curves and R^2 values were used to indicate how well the model fit the data (Supplementary Materials Figures S4 and S5). […] The maximum plasma concentration (Cmax) and the plasma concentration at steady state (Css) were used as toxicity thresholds. The Cmax was utilized for drugs in which short, high-dosage time courses are required, while the Css was used for maintenance therapy regimes such as anti-hormonal treatment. […] The IC50 values were calculated based on the Chou–Talalay method using Compusyn software [55]. For anti-hormonal treatment, mostly provided as maintenance therapy, we used IC10 values in addition to the IC50.
(§3) In addition to the 11 monotherapies, 12 drug combinations were tested (Table 3) simultaneously with the individual drug treatments in the same 384-well plate. […] Synergy was evaluated using the mass action law, a systematic analysis assessing dose–response dynamics in a cost-effective manner [56, 57]. The combination index (CI) was used to indicate antagonistic (CI > 1) additive (CI = 1) and synergistic (CI < 1) effects [55].

[2] = test system: GCPA096 T1.I patient-derived AGCT cell line; test: Cell viability drug screen (Cell Titer Glo 2.0, 72 h), mono- and combination therapy, GCPA096T1.I; settings: for pIC50: read-out: IC50 in monotherapy
Description: (§4) Cell lines were seeded at a density of 500 cells/well in 40 uL in 384-well plates (Corning, NY, USA) with the Multidrop™ cell dispenser (Thermo Fischer Scientific, Waltham, MA, USA) and sealed with Breathe-Easy® membrane (Sigma-Aldrich, St. Louis, MO, USA) to prevent evaporation. […] For each cell line, three biological repeats and two technical repeats each were performed in order to ensure the validity of the drug screens. […] Subsequently, 11 drugs and 12 drug combinations were dispensed and all wells (excluding blanks and non-DMSO control wells) were normalized to 1% DMSO using the HP Tecan D300e Digital Dispenser (Hewlett-Packard, Palo Alto, CA, USA). […] Next, the plates were covered with the Breathe-Easy membrane and incubated. After 72 h, the Multidrop dispensed 15 uL per well of Cell Titer Glo 2.0 (Thermo Fischer Scientific, Waltham, MA, USA) and plates were incubated in the dark for 10 min. After incubation, luminescence excitation was assessed in the Spectramax reader (Molecular Devices, San Jose, CA, USA) (top read, luminescence excitation at 500 nm) and raw data were processed in Microsoft Excel to subtract background luminescence. The Z-factor, a mathematical method used to quantify the quality of a drug screen based on the calculation of the separation band between the values of the positive and negative controls, was utilized to assess the quality of drug screens [54]. Screens with a Z-factor value of >0.5 were used for further analysis.
(§5) Overall cell survival (in %) was plotted against the drug concentration range of each drug (in log10[μM]) using GraphPad Prism 8.3.1. Values that exceeded 100% survival (within +20% biological deviation) were normalized to 100% survival. Similarly, values below 0% cell survival (within −20% biological deviation) were normalized to 0% survival. Values exceeding this deviation were excluded. Dose–response curves were obtained using the model “log(inhibitor) vs. variable slope (normalized response)” to fit the dose–response curves and R^2 values were used to indicate how well the model fit the data (Supplementary Materials Figures S4 and S5). […] The IC50 values were calculated based on the Chou–Talalay method using Compusyn software [55]. For anti-hormonal treatment, mostly provided as maintenance therapy, we used IC10 values in addition to the IC50.
as §3

[3] = test system: GCPA007 T2.IV patient-derived AGCT cell line; test: Cell viability drug screen (Cell Titer Glo 2.0, 72 h), mono- and combination therapy, GCPA007T2.IV; settings: for pIC50: read-out: IC50 in monotherapy
Description: as §4, §5, §3

[4] = test system: GCPA096 T1.XV patient-derived AGCT cell line; test: Cell viability drug screen (Cell Titer Glo 2.0, 72 h), mono- and combination therapy, GCPA096T1.XV; settings: for pIC50: Homo sapiens
Description: as §1, §2, §3

[5] = test system: GCPA113 T1.I patient-derived AGCT cell line; test: Cell viability drug screen (Cell Titer Glo 2.0, 72 h), mono- and combination therapy, GCPA113T1.I; settings: for pIC50: read-out: IC50 in monotherapy
Description: as §4, §5, §3

[6] = test system: GCPA113 T1.II patient-derived AGCT cell line; test: Cell viability drug screen (Cell Titer Glo 2.0, 72 h), mono- and combination therapy, GCPA113T1.II; settings: for pIC50: read-out: IC50 in monotherapy
[7] = test system: GCPA007 T2.I patient-derived AGCT cell line; test: Cell viability drug screen (Cell Titer Glo 2.0, 72 h), mono- and combination therapy, GCPA007T2.I; settings: for pIC50: read-out: IC50 in monotherapy
Description: (§6) Cell lines were seeded at a density of 500 cells/well in 40 uL in 384-well plates (Corning, NY, USA) with the Multidrop™ cell dispenser (Thermo Fischer Scientific, Waltham, MA, USA) and sealed with Breathe-Easy® membrane (Sigma-Aldrich, St. Louis, MO, USA) to prevent evaporation. The SVOG-3e line was seeded at 1000 cells/well due to contact-dependent growth requirements. For each cell line, three biological repeats and two technical repeats each were performed in order to ensure the validity of the drug screens. […] Subsequently, 11 drugs and 12 drug combinations were dispensed and all wells (excluding blanks and non-DMSO control wells) were normalized to 1% DMSO using the HP Tecan D300e Digital Dispenser (Hewlett-Packard, Palo Alto, CA, USA). All drugs were applied in linear concentration ranges (Table 2), including 16 data points to enable combination drug testing at constant ratios (Table 3). Next, the plates were covered with the Breathe-Easy membrane and incubated. After 72 h, the Multidrop dispensed 15 uL per well of Cell Titer Glo 2.0 (Thermo Fischer Scientific, Waltham, MA, USA) and plates were incubated in the dark for 10 min. After incubation, luminescence excitation was assessed in the Spectramax reader (Molecular Devices, San Jose, CA, USA) (top read, luminescence excitation at 500 nm) and raw data were processed in Microsoft Excel to subtract background luminescence. […] Screens with a Z-factor value of >0.5 were used for further analysis.
as §2, §3

[8] = test system: GCPA028 T1.II patient-derived AGCT cell line; test: Cell viability drug screen (Cell Titer Glo 2.0, 72 h), mono- and combination therapy, GCPA028; settings: for pIC50: read-out: IC50 in monotherapy
Description: as §6, §2, §3

[9] = test system: GCPA096 T1.V patient-derived AGCT cell line; test: Cell viability drug screen (Cell Titer Glo 2.0, 72 h), mono- and combination therapy, GCPA096T1.V; settings: for pIC50: Homo sapiens
[10] = test system: KGN cells (AGCT cell line); test: Cell viability drug screen (Cell Titer Glo 2.0, 72 h), mono- and combination therapy, KGN
Description: KGN was cultured in conditions identical to AGCT-patient-derived cell lines.
as §6, §5

[11] = test system: GCPA096 T1.XVI patient-derived AGCT cell line; test: Cell viability drug screen (Cell Titer Glo 2.0, 72 h), mono- and combination therapy, GCPA096T1.XVI; settings: for pIC50: read-out: IC50 in monotherapy
[12] = test system: GCPA096 T1.II patient-derived AGCT cell line; test: Cell viability drug screen (Cell Titer Glo 2.0, 72 h), mono- and combination therapy, GCPA096T1.II; settings: for pIC50: Homo sapiens
Description: as §6, §2, §3

[13] = test system: GCPA113 T1.III patient-derived AGCT cell line; test: Cell viability drug screen (Cell Titer Glo 2.0, 72 h), mono- and combination therapy, GCPA113T1.III; settings: for pIC50: read-out: IC50 in monotherapy
Description: as §4, §5, §3

[14] = cited from earlier work; for Cmax: read-out: Cmax/Css plasma
AGCT cell lines = test: Cell viability drug screen (72 h), summary over AGCT cell lines (12 patient-derived, with or without KGN); type: cell-based, human; settings: everolimus with chemotherapy; 13 cell lines
Description: as §1, §2, §3

[15] = test system: aromatase inhibitor resistant metastatic breast cancer; settings: everolimus added to tamoxifen; postmenopausal women; cited from earlier work
[16] = 72 h, read-out: IC50 in monotherapy
[17] = human maximum or steady state plasma concentration, log10 of the uM value
[18] = human plasma Cmax/Css, log10 of uM value, from phase I/II clinical trials
[19] = human plasma maximum/steady state concentration, ref phase I/II clinical trials
[20] = human plasma, maximum or steady state concentration, log10 of uM value
[21] = human plasma, log10 of uM, phase I/II trials
[22] = human maximum or steady state plasma concentration
[23] = human plasma Cmax/Css, from phase I/II clinical trials
[24] = human plasma, maximum or steady state concentration
[25] = human plasma, phase I/II trials
[26] = Homo sapiens, 72 h, read-out: IC50 in monotherapy

For `Nc1nc2c(ncn2[C@H]2C[C@H](O)[C@@H](CO)O2)c(=S)[nH]1` [6thio-2dG, 6-THIO-2dG], the “DRI (Fa=0,5)” value ([1]; GCPA108T3IV, in Carbo+Pacli+6thio2dG) was 6.093, the pIC50 ([1]; GCPA108T3IV, monotherapy) was under 4.30 and the “DRI (Fa=0,5)” value ([2]; GCPA096T1I, in combination Carbo+Pacli+6thio2dG) was 10.9. The pIC50 ([2]; GCPA096T1I, monotherapy) was under 4.30, the “DRI (Fa=0,5)” value ([3]; GCPA007T2IV, in combination Carbo+Pacli+6thio2dG) was 0.95 and the pIC50 ([3]; GCPA007T2IV, monotherapy) was under 4.30. The “DRI (Fa=0,5)” value ([4]; GCPA096T1XV, drug within Carbo+Pacli+6thio2dG) was 13.49, the IC50 ([4]; read-out: IC50 in monotherapy, GCPA096T1XV, single drug, 72 h, unit not given (compared with Cmax/Css in uM)) was over 50 µM and the “DRI (Fa=0,5)” value ([5]; GCPA113T1I, in Carbo+Pacli+6thio2dG) was 3.54. The pIC50 ([5]; GCPA113T1I, monotherapy) was under 4.30, the “DRI (Fa=0,5)” value ([6]; GCPA113T1II, drug within Carbo+Pacli+6thio2dG) was 3.71 and the pIC50 ([6]; GCPA113T1II, monotherapy) was under 4.30. The “DRI (Fa=0,5)” value ([7]; in Carbo+Pacli+6thio2dG (10:1:1), GCPA007T2I) was 2.27, the pIC50 ([7]; GCPA007T2I, cell viability 72 h after drug application) was under 4.30 and the “DRI (Fa=0,5)” value ([8]; GCPA028, in combination Carbo+Pacli+6thio2dG) was 0.16. For the same compound, the pIC50 ([8]; GCPA028, monotherapy) was under 4.30, the “DRI (Fa=0,5)” value ([9]; GCPA096T1V, drug within Carbo+Pacli+6thio2dG) was 9.08 and the IC50 ([9]; read-out: IC50 in monotherapy, GCPA096T1V, single drug, 72 h, unit not given (compared with Cmax/Css in uM)) was over 50 µM. The “DRI (Fa=0,5)” value ([10]; drug within Carbo+Pacli+6thio2dG) was 4.961, the pIC50 ([10]; read-out: IC50 in monotherapy, monotherapy) was under 4.30 and the “DRI (Fa=0,5)” value ([11]; GCPA096T1XVI, in Carbo+Pacli+6thio2dG) was 1.78. The pIC50 ([11]; GCPA096T1XVI, monotherapy) was 4.36, the “DRI (Fa=0,5)” value ([12]; GCPA096T1II, drug within Carbo+Pacli+6thio2dG) was 12.35 and the IC50 ([12]; read-out: IC50 in monotherapy, GCPA096T1II, single drug, 72 h, unit not given (compared with Cmax/Css in uM)) was over 50 µM. For the same compound, the “DRI (Fa=0,5)” value ([13]; GCPA113T1III, drug within Carbo+Pacli+6thio2dG) was 4.5 and the pIC50 ([13]; GCPA113T1III, monotherapy) was under 4.30.
Work on `Cc1nc(Nc2ncc(C(=O)Nc3c(C)cccc3Cl)s2)cc(N2CCN(CCO)CC2)n1` [Dasatinib] yielded a pIC50 ([1]; Homo sapiens, 72 h) of 5.33, a pIC50 ([2]; Homo sapiens, 72 h) of 4.85 and a pIC50 ([3]; Homo sapiens, 72 h) of under 4.70. For the same compound, the pIC50 [4, 16] was under 4.70, the pIC50 ([5]; Homo sapiens, 72 h) was under 4.70 and the “Cmax/Css plasma (Log 10)” value [14, 17] was -0.9208 Log 10. The “Cmax/Css plasma (Log 10)” value [14, 18] was -0.9208 Log 10, the “Cmax/Css plasma (Log 10)” value [14, 19] was -0.9208 Log 10 and the “Cmax/Css plasma (Log 10)” value [14, 20] was -0.9208. The “Cmax/Css plasma (Log 10)” value [14, 21] was -0.9208, the Cmax [14, 22] was 120 nM and the Cmax [14, 23] was 120 nM. For the same compound, the Cmax [14, 19] was 120 nM, the Cmax [14, 24] was 120 nM and the Cmax [14, 25] was 120 nM. For the same compound, the pIC50 ([6]; Homo sapiens, 72 h) was under 4.70, the pIC50 ([7]; Homo sapiens, 72 h) was under 4.70 and the pIC50 ([8]; Homo sapiens, 72 h) was under 4.70. It also gave a pIC50 [9, 16] of under 4.70, a pIC50 [10, 26] of 5.32 and a pIC50 ([11]; Homo sapiens, 72 h) of under 4.70. For the same compound, the pIC50 [12, 16] was under 4.70 and the pIC50 ([13]; Homo sapiens, 72 h) was 4.74.
For `CO[C@H]1C[C@@H]2CC[C@@H](C)[C@@](O)(O2)C(=O)C(=O)N2CCCC[C@H]2C(=O)O[C@H]([C@H](C)C[C@@H]2CC[C@@H](OCCO)[C@H](OC)C2)CC(=O)[C@H](C)/C=C(\C)[C@@H](O)[C@@H](OC)C(=O)[C@H](C)C[C@H](C)/C=C/C=C/C=C/1C` [Everolimus], the “cell lines with some degree of synergy” value (AGCT cell lines) is listed as 9 of the 13, the “increase of time to progression” value [15] is listed as 4.1 months and the “reduction of death risk” value [15] is listed as 55%. For the same compound, the “DRI (Fa=0,5)” value ([1]; GCPA108T3IV, in Everolimus+Alpelisib) was 76.7983, the pIC50 ([1]; Homo sapiens, 72 h) was under 4.30 and the pIC50 ([1]; Homo sapiens) was under 4.30. The “DRI (Fa=0,5)” value ([2]; GCPA096T1I, in combination Everolimus+Alpelisib) was 6.9, the pIC50 ([2]; Homo sapiens, 72 h) was 4.49 and the pIC50 ([2]; Homo sapiens) was 4.49. The “DRI (Fa=0,5)” value ([3]; GCPA007T2IV, in combination Everolimus+Alpelisib) was 1.9, the pIC50 ([3]; Homo sapiens, 72 h) was under 4.30 and the pIC50 ([3]; Homo sapiens) was under 4.30. For the same compound, the “DRI (Fa=0,5)” value ([4]; GCPA096T1XV, drug within Everolimus+Alpelisib) was 16.55, the pIC50 [4, 16] was under 4.30 and the “DRI (Fa=0,5)” value ([5]; GCPA113T1I, in Everolimus+Alpelisib) was 20.32. The pIC50 ([5]; Homo sapiens, 72 h) was under 4.30, the pIC50 ([5]; Homo sapiens) was under 4.30 and the “Cmax/Css plasma (Log 10)” value [14, 17] was -1.19 Log 10. For the same compound, the “Cmax/Css plasma (Log 10)” value [14, 18] was -1.19 Log 10, the “Cmax/Css plasma (Log 10)” value [14, 19] was -1.19 Log 10 and the “Cmax/Css plasma (Log 10)” value [14, 20] was -1.19. The “Cmax/Css plasma (Log 10)” value [14, 21] was -1.19, the Cmax [14, 22] was 64.6 nM and the Cmax [14, 23] was 64.6 nM. The Cmax [14, 19] was 64.6 nM, the Cmax [14, 24] was 64.6 nM and the Cmax [14, 25] was 64.6 nM. The “DRI (Fa=0,5)” value ([6]; GCPA113T1II, drug within Everolimus+Alpelisib) was 11.87, the pIC50 ([6]; Homo sapiens, 72 h) was under 4.30 and the pIC50 ([6]; Homo sapiens) was under 4.30. For the same compound, the pIC50 ([7]; Homo sapiens, 72 h) was 4.56, the “DRI (Fa=0,5)” value ([7]; in Everolimus+Alpelisib (1:2), GCPA007T2I) was 3.15 and the “DRI (Fa=0,5)” value ([8]; GCPA028, in combination Everolimus+Alpelisib) was 2.64. For the same compound, the pIC50 ([8]; Homo sapiens, 72 h) was 4.52, the pIC50 ([8]; Homo sapiens) was 4.52 and the “DRI (Fa=0,5)” value ([9]; GCPA096T1V, drug within Everolimus+Alpelisib) was 12.7. The pIC50 [9, 16] was under 4.30, the pIC50 [10, 26] was 4.34 and the pIC50 ([10]; Homo sapiens, read-out: IC50 in monotherapy) was 4.34. For the same compound, the “DRI (Fa=0,5)” value ([10]; drug within Everolimus+Alpelisib) was 5.131, the “DRI (Fa=0,5)” value ([11]; GCPA096T1XVI, in Everolimus+Alpelisib) was 4.73 and the pIC50 ([11]; Homo sapiens, 72 h) was 4.48. For the same compound, the pIC50 ([11]; Homo sapiens) was 4.48, the “DRI (Fa=0,5)” value ([12]; GCPA096T1II, drug within Everolimus+Alpelisib) was 13.23 and the pIC50 [12, 16] was under 4.30. The “DRI (Fa=0,5)” value ([13]; GCPA113T1III, drug within Everolimus+Alpelisib) was 23.74, the pIC50 ([13]; Homo sapiens, 72 h) was under 4.30 and the pIC50 ([13]; Homo sapiens) was under 4.30.
`C[C@]12CC[C@@H]3c4ccc(O)cc4C[C@@H](CCCCCCCCC[S+]([O-])CCCC(F)(F)C(F)(F)F)[C@H]3[C@@H]1CC[C@@H]2O` (stereo partly shown) [Fulvestrant] showed a pIC50 ([2]; Homo sapiens, 72 h) of under 4.00, a pIC50 ([3]; Homo sapiens, 72 h) of under 4.00 and a pIC50 [4, 16] of under 4.00. For the same compound, the pIC50 ([5]; Homo sapiens, 72 h) was under 4.00, the IC50 in monotherapy ([6]; GCPA113T1II, monotherapy) was “Infinit” and the pIC50 ([7]; Homo sapiens, 72 h) was under 4.00. The pIC50 ([8]; Homo sapiens, 72 h) was 4.48, the pIC50 [9, 16] was under 4.00 and the pIC50 [10, 26] was under 4.00. It also gave a pIC50 ([11]; Homo sapiens, 72 h) of under 4.00, a pIC50 [12, 16] of under 4.00 and a pIC50 ([13]; Homo sapiens, 72 h) of under 4.00.
